Columns and labels:
HEK-293 cells = assay: HEK-293 cytotoxicity detection (CellTiter-Glo); assay type: cell-based; conditions: Homo sapiens, 72 h, 72 h incubation, CellTiter-Glo luminescence, read-out: HEK293
Outline: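 HEK-293 cells exposed 72 h to 8 compounds doses (4-fold dilutions, top stock 5 mM at 500×) in 0.2% DMSO. Viability by CellTiter-Glo luminescence; inhibition normalised to DMSO high control and low control, IC50 from four-parameter curve fit.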

BTK = BTK (Homo sapiens, UniProt Q06187); assay: BTK cell degradation in TMD-8 cells, HTRF assay; assay type: cell-based; design: endogenous in cells; host or cells: TMD-8 cells; conditions: 6 h treatment, IC50 (DC50) of BTK degradation
Outline: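 TMD-8 cells treated 6 h with 8-dose series (6-fold dilutions, 0.2% DMSO final), then lysed and BTK quantified by HTRF (337/665/620 nm) after overnight antibody incubation at room temperature. Degradation normalized to DMSO high and low controls; DC50 and Dmax from four-parameter fit.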

BTK, sequence (Q06187 whole entry): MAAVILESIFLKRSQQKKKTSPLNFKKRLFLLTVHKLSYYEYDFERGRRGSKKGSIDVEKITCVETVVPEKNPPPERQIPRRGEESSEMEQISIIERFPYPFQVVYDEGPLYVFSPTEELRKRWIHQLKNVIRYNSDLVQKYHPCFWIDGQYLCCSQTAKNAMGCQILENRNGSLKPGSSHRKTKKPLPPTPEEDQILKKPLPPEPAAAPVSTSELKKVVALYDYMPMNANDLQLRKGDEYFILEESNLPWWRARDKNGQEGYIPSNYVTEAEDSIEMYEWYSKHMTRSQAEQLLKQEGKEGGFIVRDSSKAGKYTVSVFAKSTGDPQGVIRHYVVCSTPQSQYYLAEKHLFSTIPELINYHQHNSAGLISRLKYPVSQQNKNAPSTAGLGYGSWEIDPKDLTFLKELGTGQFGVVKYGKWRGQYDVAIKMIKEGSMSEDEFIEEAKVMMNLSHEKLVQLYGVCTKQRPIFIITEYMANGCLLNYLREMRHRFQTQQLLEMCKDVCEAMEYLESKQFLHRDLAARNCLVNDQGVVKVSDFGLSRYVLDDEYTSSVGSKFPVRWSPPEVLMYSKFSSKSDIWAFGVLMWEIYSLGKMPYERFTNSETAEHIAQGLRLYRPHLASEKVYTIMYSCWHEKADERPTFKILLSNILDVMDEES

Row | SMILES | DC50 (BTK) [nM] | IC50 (HEK-293 cells) [nM]
1 | Cc1cccc(NC(=O)c2ccc(-c3nn4c(c3C(N)=O)Nc3ccc(N5CCN(CC6CCN(c7ccc(N8CCC(=O)NC8=O)cc7)CC6)CC5)cc3CC4)cc2Cl)n1 [Example B25, 2-(3-chloro-4-((6-methylpyridin-2-yl)carbamoyl)phenyl)-7-(4-((1-(4-(2,4-dioxotetrahydropyrimidin-1(2H)-yl)phenyl)piperidin-4-yl)methyl)piperazin-1-yl)-9,10-dihydro-4H-benzo[d]pyrazolo[1,5-a][1,3]diazepine-3-carboxamide] | 0.415 | > 10000
2 | Cc1cccc(NC(=O)c2ccc(-c3nn4c(c3C(N)=O)Nc3ccc(N5CCN(CC6CCN(c7ccc(N8CCC(=O)N(CC(=O)OCc9ccccc9)C8=O)cc7)CC6)CC5)cc3CC4)c(F)c2C)n1 [Example B80, benzyl 2-(3-(4-(4-((4-(3-carbamoyl-2-(2-fluoro-3-methyl-4-((6-methylpyridin-2-yl)carbamoyl)phenyl)-9,10-dihydro-4H-benzo[d]pyrazolo[1,5-a][1,3]diazepin-7-yl)piperazin-1-yl)methyl)piperidin-1-yl)phenyl)-2,6-dioxotetrahydropyrimidin-1(2H)-yl)acetate] | > 2000 | > 10000
3 | NC(=O)c1c(-c2cc(F)c(C(=O)Nc3cc(C(F)(F)F)ccn3)c(F)c2)nn2c1Nc1ccc(N3CCN(CC4CCN(c5ccc(N6CCC(=O)NC6=O)cc5)CC4)CC3)cc1CC2 [Example B14, 2-(3,5-difluoro-4-((4-(trifluoromethyl)pyridin-2-yl)carbamoyl)phenyl)-7-(4-((1-(4-(2,4-dioxotetrahydropyrimidin-1(2H)-yl)phenyl)piperidin-4-yl)methyl)piperazin-1-yl)-9,10-dihydro-4H-benzo[d]pyrazolo[1,5-a][1,3]diazepine-3-carboxamide] | 1.61 | 75.4
4 | Cc1cccc(N(COC(=O)C(C)(C)C)C(=O)c2ccc(-c3nn4c(c3C(N)=O)Nc3ccc(N5CCN(CC6CCN(c7ccc(N8CCC(=O)N(COC(=O)C(C)(C)C)C8=O)cc7)CC6)CC5)cc3CC4)c(F)c2C)n1 [Example B79, (3-(4-(4-((4-(3-carbamoyl-2-(2-fluoro-3-methyl-4-((6-methylpyridin-2-yl)((pivaloyloxy)methyl)carbamoyl)phenyl)-9,10-dihydro-4H-benzo[d]pyrazolo[1,5-a][1,3]diazepin-7-yl)piperazin-1-yl)methyl)piperidin-1-yl)phenyl)-2,6-dioxotetrahydropyrimidin-1(2H)-yl)methyl pivalate] | 3.68 | > 10000
5 | NC(=O)c1c(-c2ccc(C(=O)Nc3cc(C(F)(F)F)ccn3)c(F)c2)nn2c1Nc1ccc(N3CCN(CC4CCN(c5ccc(N6CCC(=O)NC6=O)cc5)CC4)CC3)cc1CC2 [Example B8, 7-(4-((1-(4-(2,4-dioxotetrahydropyrimidin-1(2H)-yl)phenyl)piperidin-4-yl)methyl)piperazin-1-yl)-2-(3-fluoro-4-((4-(trifluoromethyl)pyridin-2-yl)carbamoyl)phenyl)-9,10-dihydro-4H-benzo[d]pyrazolo[1,5-a][1,3]diazepine-3-carboxamide] | 1.82 | 301
6 | Cc1c(C(=O)Nc2cc(C(F)(F)F)ccn2)ccc(-c2nn3c(c2C(N)=O)Nc2ccc(N4CCN(CC5CCN(c6ccc(N7CCC(=O)NC7=O)cc6)CC5)CC4)cc2CC3)c1F [Example B15, 7-(4-((1-(4-(2,4-dioxotetrahydropyrimidin-1(2H)-yl)phenyl)piperidin-4-yl)methyl)piperazin-1-yl)-2-(2-fluoro-3-methyl-4-((4-(trifluoromethyl)pyridin-2-yl)carbamoyl)phenyl)-9,10-dihydro-4H-benzo[d]pyrazolo[1,5-a][1,3]diazepine-3-carboxamide] | 1.13 | 185
7 | COc1ccnc(NC(=O)c2ccc(-c3nn4c(c3C(N)=O)Nc3ccc(N5CCN(CC6CCN(c7ccc(N8CCC(=O)NC8=O)cc7)CC6)CC5)cc3CC4)c(F)c2C)c1 [Example B50, 7-(4-((1-(4-(2,4-dioxotetrahydropyrimidin-1(2H)-yl)phenyl)piperidin-4-yl)methyl)piperazin-1-yl)-2-(2-fluoro-4-((4-methoxypyridin-2-yl)carbamoyl)-3-methylphenyl)-9,10-dihydro-4H-benzo[d]pyrazolo[1,5-a][1,3]diazepine-3-carboxamide] | 2.16 | > 10000
8 | Cc1c(C(=O)Nc2cn(C)cn2)ccc(-c2nn3c(c2C(N)=O)Nc2ccc(N4CCN(CCc5cc(F)c(C6CCC(=O)NC6=O)c(F)c5)CC4)cc2CC3)c1F (centres unmarked) [Example B88, 7-(4-(4-(2,6-dioxopiperidin-3-yl)-3,5-difluorophenethyl)piperazin-1-yl)-2-(2-fluoro-3-methyl-4-((1-methyl-1H-imidazol-4-yl)carbamoyl)phenyl)-9,10-dihydro-4H-benzo[d]pyrazolo[1,5-a][1,3]diazepine-3-carboxamide] | 1.63 | > 10000

Further molecules by falling DC50 (BTK), results first:

Row | DC50 (BTK) [nM] | SMILES | IC50 (HEK-293 cells) [nM]
9 | 30.1 | Cc1cccc(NC(=O)c2ccc(-c3nn4c(c3C(N)=O)Nc3ccc(N5CCN(C(=O)Cc6cccc(N7CCC(=O)NC7=O)c6)CC5)cc3CC4)c(F)c2C)n1 [Example B75, 7-(4-(2-(3-(2,4-dioxotetrahydropyrimidin-1(2H)-yl)phenyl)acetyl)piperazin-1-yl)-2-(2-fluoro-3-methyl-4-((6-methylpyridin-2-yl)carbamoyl)phenyl)-9,10-dihydro-4H-benzo[d]pyrazolo[1,5-a][1,3]diazepine-3-carboxamide] | > 10000
10 | 11.9 | NC(=O)c1c(-c2ccc(Oc3ccccc3)cc2)nn2c1Nc1cc(C3CCN(CCc4ccc(C5CCC(=O)NC5=O)cc4)CC3)ccc1CC2 (centres unmarked) [Example A34, 6-(1-(4-(2,6-dioxopiperidin-3-yl)phenethyl)piperidin-4-yl)-2-(4-phenoxyphenyl)-9,10-dihydro-4H-benzo[d]pyrazolo[1,5-a][1,3]diazepine-3-carboxamide] | 337
11 | 9.26 | CCc1cccc(NC(=O)c2ccc(-c3nn4c(c3C(N)=O)Nc3ccc(N5CCN(CC6CCN(c7ccc(N8CCC(=O)NC8=O)cc7)CC6)CC5)cc3CC4)c(F)c2C)n1 [Example B41, 7-(4-((1-(4-(2,4-dioxotetrahydropyrimidin-1(2H)-yl)phenyl)piperidin-4-yl)methyl)piperazin-1-yl)-2-(4-((6-ethylpyridin-2-yl)carbamoyl)-2-fluoro-3-methylphenyl)-9,10-dihydro-4H-benzo[d]pyrazolo[1,5-a][1,3]diazepine-3-carboxamide] | > 10000
12 | 8.86 | Cc1cccc(NC(=O)c2ncc(-c3nn4c(c3C(N)=O)Nc3ccc(N5CCN(CC6CCN(c7ccc(N8CCC(=O)NC8=O)cc7)CC6)CC5)cc3CC4)cc2C)n1 [Example B32, 7-(4-((1-(4-(2,4-dioxotetrahydropyrimidin-1(2H)-yl)phenyl)piperidin-4-yl)methyl)piperazin-1-yl)-2-(5-methyl-6-((6-methylpyridin-2-yl)carbamoyl)pyridin-3-yl)-9,10-dihydro-4H-benzo[d]pyrazolo[1,5-a][1,3]diazepine-3-carboxamide] | 332
13 | 3.1 | COc1ccccc1C(=O)NCc1ccc(-c2nn3c(c2C(N)=O)Nc2ccc(N4CCN(CC5CCN(c6ccc(N7CCC(=O)NC7=O)cc6)CC5)CC4)cc2CC3)cc1C [Example C32, 7-(4-((1-(4-(2,4-dioxotetrahydropyrimidin-1(2H)-yl)phenyl)piperidin-4-yl)methyl)piperazin-1-yl)-2-(4-((2-methoxybenzamido)methyl)-3-methylphenyl)-9,10-dihydro-4H-benzo[d]pyrazolo[1,5-a][1,3]diazepine-3-carboxamide] | > 10000
14 | 1.15 | COc1ccc(C(F)(F)F)cc1C(=O)NCc1ccc(-c2nn3c(c2C(N)=O)Nc2ccc(N4CCN(CC5CCN(c6ccc(N7CCC(=O)NC7=O)cc6)CC5)CC4)cc2CC3)c(F)c1F [Example C28, 2-(2,3-difluoro-4-((2-methoxy-5-(trifluoromethyl)benzamido)methyl)phenyl)-7-(4-((1-(4-(2,4-dioxotetrahydropyrimidin-1(2H)-yl)phenyl)piperidin-4-yl)methyl)piperazin-1-yl)-9,10-dihydro-4H-benzo[d]pyrazolo[1,5-a][1,3]diazepine-3-carboxamide] | > 10000
15 | 0.387 | NC(=O)c1c(-c2ccc(C(=O)Nc3cc(C4CC4)ccn3)cc2)nn2c1Nc1ccc(N3CCN(CC4CCN(c5ccc(N6CCC(=O)NC6=O)cc5)CC4)CC3)cc1CC2 [Example B11, 2-(4-((4-cyclopropylpyridin-2-yl)carbamoyl)phenyl)-7-(4-((1-(4-(2,4-dioxotetrahydropyrimidin-1(2H)-yl)phenyl)piperidin-4-yl)methyl)piperazin-1-yl)-9,10-dihydro-4H-benzo[d]pyrazolo[1,5-a][1,3]diazepine-3-carboxamide] | > 10000
16 | 0.378 | NC(=O)c1c(-c2ccc(C(=O)Nc3cc(C(F)F)ccn3)cc2)nn2c1Nc1ccc(N3CCN(CC4CCN(c5ccc(N6CCC(=O)NC6=O)cc5)CC4)CC3)cc1CC2 [Example B18, 2-(4-((4-(difluoromethyl)pyridin-2-yl)carbamoyl)phenyl)-7-(4-((1-(4-(2,4-dioxotetrahydropyrimidin-1(2H)-yl)phenyl)piperidin-4-yl)methyl)piperazin-1-yl)-9,10-dihydro-4H-benzo[d]pyrazolo[1,5-a][1,3]diazepine-3-carboxamide] | > 10000
